Experimental data from publication PMC7051966, “Substrate Specific Inhibitor Designed against the Immunomodulator GMF-beta Reversed the Experimental Autoimmune Encephalomyelitis” (Scientific Reports, 2020).

Biological target: T1, hGMF-β (human glia maturation factor-β) (Homo sapiens, UniProt P60983)
T1 construct: gene GMFB; amine-coupled to CM5 chip
Test: SPR (Biacore T200), GMF-β immobilised on CM5 chip, […] fit
Format: binding

T1 sequence (P60983 2-142): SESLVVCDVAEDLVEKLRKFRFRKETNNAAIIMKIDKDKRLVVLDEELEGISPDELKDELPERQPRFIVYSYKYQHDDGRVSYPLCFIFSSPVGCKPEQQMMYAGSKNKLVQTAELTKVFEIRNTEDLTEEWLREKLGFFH

Compound: OCc1cccc2[nH]ncc12 [II, 1-H-indazole-4yl methanol]
- Kd: 20 µM
